Results reported in patent US20240384350A1, “METHODS OF TREATING CANCER WITH KINASE INHIBITORS” (BOARD OF REGENTS, THE UNIVERSITY OF TEXAS SYSTEM, priority 2021, published 2024).

Assays:
Test in all cases: Ba/F3 drug screening, Cell Titer Glo, IC50 Mut/WT
Assay type in all cases: cell-based
EGFR K754E = target: T1, EGFR K754E (Homo sapiens, UniProt P00533, K754E); details: Classical-Like, 72 hours
T1 construct: expressed in transfected cells; host or cells: Ba/F3 cells, retroviral pBabe-Puro vector

EGFR E709K G719S = target: T2, EGFR E709K G719S (Homo sapiens, UniProt P00533, E709K/G719S)
T2 construct: expressed in transfected cells; host or cells: Ba/F3

EGFR S811F = target: T3, EGFR S811F (Homo sapiens, UniProt P00533, S811F); details: Classical-Like, 72 hours
T3 construct: expressed in transfected cells; host or cells: Ba/F3 cells, retroviral pBabe-Puro vector (vector made by GeneScript from EGFR WT)

[1] = target: T4, EGFR L747_K754del insATSPE (Homo sapiens, UniProt P00533, DEL747-749/K754E); details: T790M-like-3S, 72 hours
T4 construct: expressed in transfected cells; host or cells: Ba/F3 cells, retroviral pBabe-Puro vector

EGFR G724S = target: T5, EGFR G724S (Homo sapiens, UniProt P00533, G724S)
T5 construct: expressed in transfected cells; host or cells: Ba/F3

EGFR L858R L718Q = target: T6, EGFR L858R L718Q (Homo sapiens, UniProt P00533, L718Q/L858R)
T6 construct: host or cells: Ba/F3
Procedure: (§1) Data represent the ratio of the IC50 value for a given TKI for cells with a PACC EGFR mutation to the IC50 value for cells with wildtype EGFR.
(§2) Ba/F3 cell generation, drug screening, and IC50 approximations. Ba/F3 cells were obtained as a gift from Dr. Gordon Mills (MD Anderson Cancer Center), and maintained in RPMI (Sigma) containing 10% FBS, 1% penicillin/streptomycin, and 10 ng/ml recombinant mIL-3 (R&D Biosystems). To establish stable Ba/F3 cell lines, Ba/F3 cells were transduced with retroviruses containing mutant EGFR plasmids for 12-24 hours.
(§3) After 48-72 hours of transduction, 2 μg/ml puromycin (Invitrogen) was added to Ba/F3 cell lines in complete RPMI. To select for EGFR positive cell lines, cells were stained with PE-EGFR (Biolegend) and sorted by FACS. After sorting, EGFR positive cells were maintained in RPMI containing 10% FBS, 1% penicillin/streptomycin, and 1 ng/ml EGF to support cell viability. Drug screening was performed as previously described^41,42. Shortly, cells were plated in 384-well plates (Greiner Bio-One) at 2000-3000 cells per well in technical triplicate. Seven different concentrations of TKIs or DMSO vehicle were added to reach a final volume of 40 μL per well. After 72 hours, 11 μL of Cell Titer Glo (Promega) was added to each well. Plates were incubated for a minimum of 10 minutes, and bioluminescence was determined using a FLUOstar OPTIMA plate reader (BMG LABTECH). Raw bioluminescence values were normalized to DMSO control treated cells, and values were plotted in GraphPad Prism. […] Drug screens were performed in technical triplicate on each plate and either duplicate or triplicate biological replicates.

EGFR L718Q = target: T7, EGFR L718Q (Homo sapiens, UniProt P00533, L718Q)
T7 construct: expressed in transfected cells; host or cells: Ba/F3

EGFR G719A/R776C = target: T8, EGFR G719A/R776C (Homo sapiens, UniProt P00533, G719A/R776C)
T8 construct: expressed in transfected cells; host or cells: Ba/F3
Procedure: as §1, §2, §3

EGFR L718V = target: T9, EGFR L718V (Homo sapiens, UniProt P00533, L718V)
T9 construct: expressed in transfected cells; host or cells: Ba/F3

EGFR D770insNPG = target: T10, EGFR D770insNPG (Homo sapiens, UniProt P00533, INS770NPG); details: Ex20, 72 hours
T10 construct: expressed in transfected cells; host or cells: Ba/F3 cells, retroviral pBabe-Puro vector

EGFR Ex19del/T790M/L792H = target: T11, EGFR Ex19del/T790M/L792H (Homo sapiens, UniProt P00533, DEL746-750/L792H/T790M); details: T790M-like-3R, 72 hours
T11 construct: expressed in transfected cells; host or cells: Ba/F3

EGFR N771dupN = target: T12, EGFR N771dupN (Homo sapiens, UniProt P00533, DUP771-771); details: Ex20, 72 hours
T12 construct: expressed in transfected cells; host or cells: Ba/F3 cells, retroviral pBabe-Puro vector
Procedure: Data represent the ratio of the IC50 value for a given TKI for cells with an ex20ins EGFR mutation to the IC50 value for cells with wildtype EGFR.
as §2
(§4) After 48-72 hours of transduction, 2 μg/ml puromycin (Invitrogen) was added to Ba/F3 cell lines in complete RPMI. To select for EGFR positive cell lines, cells were stained with PE-EGFR (Biolegend) and sorted by FACS. After sorting, EGFR positive cells were maintained in RPMI containing 10% FBS, 1% penicillin/streptomycin, and 1 ng/ml EGF to support cell viability. Drug screening was performed as previously described^41,42. Shortly, cells were plated in 384-well plates (Greiner Bio-One) at 2000-3000 cells per well in technical triplicate. Seven different concentrations of TKIs or DMSO vehicle were added to reach a final volume of 40 μL per well. After 72 hours, 11 μL of Cell Titer Glo (Promega) was added to each well. Plates were incubated for a minimum of 10 minutes, and bioluminescence was determined using a FLUOstar OPTIMA plate reader (BMG LABTECH). Raw bioluminescence values were normalized to DMSO control treated cells, and values were plotted in GraphPad Prism. […] Drug screens were performed in technical triplicate on each plate and either duplicate or triplicate biological replicates. […] Statistical differences between groups were determined by ANOVA as described in the figure legends.

EGFR L858R/C797S = target: T13, EGFR L858R/C797S (Homo sapiens, UniProt P00533, C797S/L858R)
T13 construct: expressed in transfected cells; host or cells: Ba/F3
Procedure: as §1, §2, §3

EGFR L858R = target: T14, EGFR L858R (Homo sapiens, UniProt P00533, L858R); details: Classical-Like, 72 hours
T14 construct: expressed in transfected cells; host or cells: Ba/F3 cells, retroviral pBabe-Puro vector
Procedure: (§5) Data represent the ratio of the IC50 value for a given TKI for cells with a classical-like EGFR mutation to the IC50 value for cells with wildtype EGFR.
as §2
(§6) After 48-72 hours of transduction, 2 μg/ml puromycin (Invitrogen) was added to Ba/F3 cell lines in complete RPMI. To select for EGFR positive cell lines, cells were stained with PE-EGFR (Biolegend) and sorted by FACS. After sorting, EGFR positive cells were maintained in RPMI containing 10% FBS, 1% penicillin/streptomycin, and 1 ng/ml EGF to support cell viability. […] Shortly, cells were plated in 384-well plates (Greiner Bio-One) at 2000-3000 cells per well in technical triplicate. Seven different concentrations of TKIs or DMSO vehicle were added to reach a final volume of 40 μL per well. After 72 hours, 11 μL of Cell Titer Glo (Promega) was added to each well. Plates were incubated for a minimum of 10 minutes, and bioluminescence was determined using a FLUOstar OPTIMA plate reader (BMG LABTECH). Raw bioluminescence values were normalized to DMSO control treated cells, and values were plotted in GraphPad Prism. […] Drug screens were performed in technical triplicate on each plate and either duplicate or triplicate biological replicates.

EGFR S768I/T790M = target: T15, EGFR S768I/T790M (Homo sapiens, UniProt P00533, S768I/T790M); details: T790M-like-3S, 72 hours
T15 construct: expressed in transfected cells; host or cells: Ba/F3

EGFR R776H = target: T16, EGFR R776H (Homo sapiens, UniProt P00533, R776H)
T16 construct: host or cells: Ba/F3
Procedure: as §1, §2, §3

EGFR L858R/T790M = target: T17, EGFR L858R/T790M (Homo sapiens, UniProt P00533, L858R/T790M); details: T790M-like-3S, 72 hours
T17 construct: expressed in transfected cells; host or cells: Ba/F3

EGFR Ex19del/C797S = target: T18, EGFR Ex19del/C797S (Homo sapiens, UniProt P00533, C797S/DEL746-750)
T18 construct: expressed in transfected cells; host or cells: Ba/F3
Procedure: as §1, §2, §3

EGFR G724S T790M = target: T19, EGFR G724S T790M (Homo sapiens, UniProt P00533, G724S/T790M); details: T790M-like-3R, 72 hours
T19 construct: expressed in transfected cells; host or cells: Ba/F3

EGFR S768I = target: T20, EGFR S768I (Homo sapiens, UniProt P00533, S768I)
T20 construct: expressed in transfected cells; host or cells: Ba/F3
Procedure: as §1, §2, §4

EGFR Ex19del/T790M/G724S = target: T21, EGFR Ex19del/T790M/G724S (Homo sapiens, UniProt P00533, DEL746-750/G724S/T790M); details: T790M-like-3S, 72 hours
T21 construct: expressed in transfected cells; host or cells: Ba/F3

EGFR L858R T790M L792H = target: T22, EGFR L858R T790M L792H (Homo sapiens, UniProt P00533, L792H/L858R/T790M); details: T790M-like-3S, 72 hours
T22 construct: expressed in transfected cells; host or cells: Ba/F3

EGFR L858R/L718V = target: T23, EGFR L858R/L718V (Homo sapiens, UniProt P00533, L718V/L858R)
T23 construct: host or cells: Ba/F3

EGFR Ex19del T790M L718V = target: T24, EGFR Ex19del T790M L718V (Homo sapiens, UniProt P00533, DEL746-750/L718V/T790M); details: T790M-like-3S, 72 hours
T24 construct: expressed in transfected cells; host or cells: Ba/F3

EGFR S768I/V769L = target: T25, EGFR S768I/V769L (Homo sapiens, UniProt P00533, S768I/V769L)
T25 construct: host or cells: Ba/F3

EGFR L858R/V834L = target: T26, EGFR L858R/V834L (Homo sapiens, UniProt P00533, L858R/V834L); details: Classical-Like, 72 hours
T26 construct: expressed in transfected cells; host or cells: Ba/F3 cells, retroviral pBabe-Puro vector
Procedure: as §5, §2, §6

EGFR S768I V774M = target: T27, EGFR S768I V774M (Homo sapiens, UniProt P00533, S768I/V774M)
T27 construct: host or cells: Ba/F3

SMILES	ratio of IC50 for cells with mutant EGFR to IC50 for cells with wildtype EGFR (Mut/WT) (EGFR K754E)	ratio of IC50 for cells with mutant EGFR to IC50 for cells with wildtype EGFR (Mut/WT) (EGFR S811F)	ratio of IC50 for cells with mutant EGFR to IC50 for cells with wildtype EGFR (Mut/WT) [1]	ratio of IC50 for cells with mutant EGFR to IC50 for cells with wildtype EGFR (Mut/WT) (EGFR D770insNPG)	ratio of IC50 for cells with mutant EGFR to IC50 for cells with wildtype EGFR (Mut/WT) (EGFR Ex19del/T790M/L792H)	ratio of IC50 for cells with mutant EGFR to IC50 for cells with wildtype EGFR (Mut/WT) (EGFR N771dupN)	ratio of IC50 for cells with mutant EGFR to IC50 for cells with wildtype EGFR (Mut/WT) (EGFR L858R)	ratio of IC50 for cells with mutant EGFR to IC50 for cells with wildtype EGFR (Mut/WT) (EGFR S768I/T790M)	ratio of IC50 for cells with mutant EGFR to IC50 for cells with wildtype EGFR (Mut/WT) (EGFR L858R/T790M)	ratio of IC50 for cells with mutant EGFR to IC50 for cells with wildtype EGFR (Mut/WT) (EGFR G724S T790M)	ratio of IC50 for cells with mutant EGFR to IC50 for cells with wildtype EGFR (Mut/WT) (EGFR Ex19del/T790M/G724S)	ratio of IC50 for cells with mutant EGFR to IC50 for cells with wildtype EGFR (Mut/WT) (EGFR L858R T790M L792H)	ratio of IC50 for cells with mutant EGFR to IC50 for cells with wildtype EGFR (Mut/WT) (EGFR Ex19del T790M L718V)	ratio of IC50 for cells with mutant EGFR to IC50 for cells with wildtype EGFR (Mut/WT) (EGFR L858R/V834L)	also measured
CN(C)C/C=C/C(=O)Nc1cc2c(Nc3ccc(Cl)c(Br)c3)ncnc2cn1 [Tarlox-TKI]	0.00723	0.1118	4.874	5.023	74.97	7.062	0.1181	60.19	11.95	1.041	4.197	5.198	154.4	0.002571	ratio of IC50 for cells with mutant EGFR to IC50 for cells with wildtype EGFR (Mut/WT) (EGFR E709K G719S; PACC, E709K G719S, Ba/F3, 72 hours): 0.06517; ratio of IC50 for cells with mutant EGFR to IC50 for cells with wildtype EGFR (Mut/WT) (EGFR G724S; PACC, G724S, Ba/F3, 72 hours): 8.499; ratio of IC50 for cells with mutant EGFR to IC50 for cells with wildtype EGFR (Mut/WT) (EGFR L858R L718Q; PACC, L858R L718Q, Ba/F3, 72 hours): 0.3655; ratio of IC50 for cells with mutant EGFR to IC50 for cells with wildtype EGFR (Mut/WT) (EGFR L718Q; PACC, L718Q, Ba/F3, 72 hours): 0.06989; ratio of IC50 for cells with mutant EGFR to IC50 for cells with wildtype EGFR (Mut/WT) (EGFR G719A/R776C; PACC, G719A/R776C, Ba/F3, 72 hours): 0.03266; ratio of IC50 for cells with mutant EGFR to IC50 for cells with wildtype EGFR (Mut/WT) (EGFR L718V; PACC, L718V, Ba/F3, 72 hours): 1.421; ratio of IC50 for cells with mutant EGFR to IC50 for cells with wildtype EGFR (Mut/WT) (EGFR L858R/C797S; PACC, L858R/C797S, Ba/F3, 72 hours): 0.7434; ratio of IC50 for cells with mutant EGFR to IC50 for cells with wildtype EGFR (Mut/WT) (EGFR R776H; PACC, R776H, Ba/F3, 72 hours): 0.1639; ratio of IC50 for cells with mutant EGFR to IC50 for cells with wildtype EGFR (Mut/WT) (EGFR Ex19del/C797S; PACC, Ex19del/C797S, Ba/F3, 72 hours): 0.2272; ratio of IC50 for cells with mutant EGFR to IC50 for cells with wildtype EGFR (Mut/WT) (EGFR S768I; PACC, S768I, Ba/F3, 72 hours): 0.3863; ratio of IC50 for cells with mutant EGFR to IC50 for cells with wildtype EGFR (Mut/WT) (EGFR L858R/L718V; PACC, L858R/L718V, Ba/F3, 72 hours): 0.3578; ratio of IC50 for cells with mutant EGFR to IC50 for cells with wildtype EGFR (Mut/WT) (EGFR S768I/V769L; PACC, S768I/V769L, Ba/F3, 72 hours): 0.713; ratio of IC50 for cells with mutant EGFR to IC50 for cells with wildtype EGFR (Mut/WT) (EGFR S768I V774M; PACC, S768I V774M, Ba/F3, 72 hours): 0.2117
C=CC(=O)N1CC[C@@H](Oc2nc(Nc3ccc(N4CCC(N5CCN(C)CC5)CC4)cc3)c(C(N)=O)nc2CC)C1 [Naquotinib]	0.04901	0.0351	0.00433	1.296	4.634	3.012	0.07863	0.1426	0.01398	0.1395	0.02849	0.03529	0.02994	0.05339	ratio of the IC50 value for cells with a PACC EGFR mutation to the IC50 value for cells with wildtype EGFR (EGFR E709K G719S; Ba/F3 cells, EGFR E709K G719S (PACC), Mut/WT): 0.5339; ratio of the IC50 value for cells with a PACC EGFR mutation to the IC50 value for cells with wildtype EGFR (EGFR G724S; Ba/F3 cells, EGFR G724S (PACC), Mut/WT): 1.174; ratio of the IC50 value for cells with a PACC EGFR mutation to the IC50 value for cells with wildtype EGFR (EGFR L858R L718Q; Ba/F3 cells, EGFR L858R L718Q (PACC), Mut/WT): 5.547; ratio of the IC50 value for cells with a PACC EGFR mutation to the IC50 value for cells with wildtype EGFR (EGFR L718Q; Ba/F3 cells, EGFR L718Q (PACC), Mut/WT): 5.448; ratio of the IC50 value for cells with a PACC EGFR mutation to the IC50 value for cells with wildtype EGFR (EGFR G719A/R776C; Ba/F3 cells, EGFR G719A/R776C (PACC), Mut/WT): 0.2899; ratio of the IC50 value for cells with a PACC EGFR mutation to the IC50 value for cells with wildtype EGFR (EGFR L718V; Ba/F3 cells, EGFR L718V (PACC), Mut/WT): 0.5426; ratio of the IC50 value for cells with a PACC EGFR mutation to the IC50 value for cells with wildtype EGFR (EGFR L858R/C797S; Ba/F3 cells, EGFR L858R/C797S (PACC), Mut/WT): 5.266; ratio of the IC50 value for cells with a PACC EGFR mutation to the IC50 value for cells with wildtype EGFR (EGFR R776H; Ba/F3 cells, EGFR R776H (PACC), Mut/WT): 0.5095; ratio of the IC50 value for cells with a PACC EGFR mutation to the IC50 value for cells with wildtype EGFR (EGFR Ex19del/C797S; Ba/F3 cells, EGFR Ex19del/C797S (PACC), Mut/WT): 11.45; ratio of the IC50 value for cells with a PACC EGFR mutation to the IC50 value for cells with wildtype EGFR (EGFR S768I; Ba/F3 cells, EGFR S768I (PACC), Mut/WT): 1.09; ratio of the IC50 value for cells with a PACC EGFR mutation to the IC50 value for cells with wildtype EGFR (EGFR L858R/L718V; Ba/F3 cells, EGFR L858R/L718V (PACC), Mut/WT): 3.358; ratio of the IC50 value for cells with a PACC EGFR mutation to the IC50 value for cells with wildtype EGFR (EGFR S768I/V769L; Ba/F3 cells, EGFR S768I/V769L (PACC), Mut/WT): 1.734; ratio of the IC50 value for cells with a PACC EGFR mutation to the IC50 value for cells with wildtype EGFR (EGFR S768I V774M; Ba/F3 cells, EGFR S768I V774M (PACC), Mut/WT): 0.4917
